Assay results as given in patent US10238671B2, “Hydrosoluble hydroxybisphosphonic derivatives of doxorubicin” (Atlanthera, priority 2014, dated 2019).
Converted amounts (≈) assume the structure as drawn.

Tests used:
[1] = Solubility of compounds (II), (III) and (IV) compared with products (a) and (b); settings: for solubility: aqueous buffer
[2] = Toxicity in mice (weight loss, cardiotoxicity, maximum usable dose); settings: for Dose giving similar weight loss, relative to doxorubicin alone (maximum usable dose study): mice, intravenously or intraperitoneally
[3] = system: human tumor line HOS (human osteosarcoma, ATCC); assay: Orthotopic xenogeneic murine model of osteolytic osteosarcoma (paratibial injection of HOS): tumor volume and radiographic evaluation; type: in vivo, immunosuppressed mice; settings: for Size of extraosseous tumors in relation to control group and vector 5 and/or doxorubicin groups: 25 μmol/kg 2x/wk intraperitoneally, HOS tumor in mice; for Fractures of the tibial metaphysis: Day 27, radiography, 90% of control animals have fractures; for Bone lesions (metaphyseal fractures, alteration of cortical integrity, new formation of ectopic bone): radiographic evaluation, compared with control and other groups
Description: The antitumor activity of compounds (II) and (III) according to the invention was evaluated in an orthotopic, xenogeneic murine model of osteolytic osteosarcoma induced by paratibial injection of the human tumor line HOS (human osteosarcoma, ATCC) in immunosuppressed mice. The activity of the molecules according to the invention was compared with that of the two main subunits comprising them (doxorubicin and vector 5) alone or in combination. The treatments, on 10 animals per group, began the day following tumor induction and were administered intraperitoneally 1 to 2 times per week for 5 weeks. Tumor volumes were measured twice per week using a slide caliper and radiographic evaluation was carried out once per week. Tumor volume, expressed in mm^3, is calculated according to the following formula: V=(L×l^2)/2 (L and l, expressed in mm, correspond to the large length and the small length of the tumor, respectively).
The following treatment groups were thus studied, each on 10 mice: […]

[4] = 2 mg/ml solution of TRIS in water

Compound | solubility ([1]; DPBS or water) [mM] | Dose giving similar weight loss, relative to doxorubicin alone (maximum usable dose study) [2] [times higher] | Size of extraosseous tumors in relation to control group and vector 5 and/or doxorubicin groups [3] | Fractures of the tibial metaphysis [3] | Bone lesions (metaphyseal fractures, alteration of cortical integrity, new formation of ectopic bone) [3] | Solubility in 2 mg/ml solution of TRIS in water [1, 4] | Solubility in DPBS or water ([1]; DPBS or water) | other results
COc1cccc2c1C(=O)c1c(O)c3c(c(O)c1C2=O)C[C@@](O)(/C(CO)=N/NC(=S)NNC(=O)CN(CCN(CC(=O)O)CC(=O)NNC(=S)N/N=C/c1cccc(OCCCN(C)CCC(O)(P(=O)(O)O)P(=O)(O)O)c1)CC(=O)O)C[C@@H]3O[C@H]1C[C@H](N)[C@H](O)[C@H](C)O1 [Compound (II)] | ~255 (≈ 354 mg/mL) | 13 | significantly reduce | not detected in any of the mice | reduce | – | – | Signs of toxicity (very early weight loss, cardiotoxicity) ([2]; 20 μmol/kg (molar equivalent dose to doxorubicin 12 mg/kg)): do not induce these signs of toxicity; Animals with a tumor greater than 1500 mm^3 in volume ([3]; Day 32, 10 mice per group): only one mouse
COc1cccc2c1C(=O)c1c(O)c3c(c(O)c1C2=O)C[C@@](O)(/C(CO)=N/NC(=S)N/N=C/c1cccc(OCCCN(C)CCC(O)(P(=O)(O)O)P(=O)(O)O)c1)C[C@@H]3O[C@H]1C[C@H](N)[C@H](O)[C@H](C)O1 [(a)] | – | – | – | – | – | insoluble | insoluble | Solubility in organic solvents ([1]; ethanol or dimethylsulfoxide or mixtures thereof with water): insoluble; Solubility in water with organic or inorganic additives ([1]; water with organic additives (Tween, PEG, glycerin, glucose, TRIS) or inorganic additives (sodium carbonate or bicarbonate)): insoluble
COc1cccc2c1C(=O)c1c(O)c3c(c(O)c1C2=O)C[C@@](O)(/C(CO)=N/OCC(O)(P(=O)(O)O)P(=O)(O)O)C[C@@H]3O[C@H]1C[C@H](N)[C@H](O)[C@H](C)O1 [Compound (IV)] | ~315 (≈ 240 mg/mL) | 13 | – | – | – | – | – | –
COc1cccc2c1C(=O)c1c(O)c3c(c(O)c1C2=O)C[C@@](O)(/C(CO)=N/NC(=S)NNCc1cccc(OCCCN(C)CCC(O)(P(=O)(O)O)P(=O)(O)O)c1)C[C@@H]3O[C@H]1C[C@H](N)[C@H](O)[C@H](C)O1 [Compound (III)] | ~160 (≈ 164 mg/mL) | 13 | significantly reduce | not detected in any of the mice | reduce | – | – | –
COc1cccc2c1C(=O)c1c(O)c3c(c(O)c1C2=O)C[C@@](O)(C(=O)CO)C[C@@H]3O[C@H]1C[C@H](N)[C@H](O)[C@H](C)O1 [doxorubicin] | – | – | – | – | equivalent to those of the control group | – | – | Weight loss ([2]; dose 12 mg/kg (20 μmol/kg), requiring euthanasia after 2 weeks of treatment): > 10%; Outcome after Day 27 (tumor volume) ([3]; after Day 27): had to be euthanized because of excessively large tumor volumes
COc1cccc2c1C(=O)c1c(O)c3c(c(O)c1C2=O)C[C@@](O)(/C(CO)=N/NC(=S)N/N=C/c1cccc(OCCCN(C)CCC(O)(P(=O)(O)O)P(=O)(O)O)c1)C[C@@H]3O[C@H]1C[C@H](NC(=O)CCC(=O)O)[C@H](O)[C@H](C)O1 [(b)] | – | – | – | – | – | poorly soluble | insoluble | solubility [1, 4]: ~1 mM (≈ 1.13 mg/mL)
